Experimental data reported in US20070049593A1 (priority 2004, published 2007).
Structures can show the parent of a compound that is named as a salt.

Target: T1, HCV polymerase (Hepatitis C virus genotype 1b, UniProt P26663)
T1 construct: a region encoding NS5B (J Virol 1991 March, 65(3), 1105-13, 544 amino acids after deletion of 47 amino acids on the C-terminal); 6xHis (C); made in house; host or cells: Escherichia coli
Experiment: biochemical
Design: species or system HCV BK strain
Method in brief: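 His-tagged NS5B (BK strain, 47-aa C-terminal deletion, E. coli-expressed) at 0.5 μg/ml copied 5 μg/ml run-off RNA bearing the HCV 3′ UTR with 2 μM UTP plus [3H]UTP, 50 μM ATP/GTP, in pH 7.5 Tris with 5 mM MgCl2, 25 °C, 90 min. TCA-precipitated RNA was counted and IC50 calculated.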

T1 sequence (P26663 2420-2963): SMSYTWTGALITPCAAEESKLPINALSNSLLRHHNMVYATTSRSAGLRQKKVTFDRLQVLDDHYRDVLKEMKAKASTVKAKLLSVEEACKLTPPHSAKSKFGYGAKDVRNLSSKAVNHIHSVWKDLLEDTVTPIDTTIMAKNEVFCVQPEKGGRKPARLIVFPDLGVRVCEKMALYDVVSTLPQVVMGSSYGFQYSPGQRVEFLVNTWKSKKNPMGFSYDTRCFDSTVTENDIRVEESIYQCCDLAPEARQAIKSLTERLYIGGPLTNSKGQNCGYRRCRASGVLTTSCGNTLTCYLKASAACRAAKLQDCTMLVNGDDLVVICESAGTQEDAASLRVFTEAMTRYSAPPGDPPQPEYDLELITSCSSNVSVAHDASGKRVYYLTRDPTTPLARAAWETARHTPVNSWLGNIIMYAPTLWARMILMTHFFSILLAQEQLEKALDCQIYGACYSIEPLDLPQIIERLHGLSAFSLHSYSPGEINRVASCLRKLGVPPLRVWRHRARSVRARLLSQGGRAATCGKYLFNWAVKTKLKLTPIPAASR

SMILES | IC50 [nM]
Cc1cccc2c1-c1c(C3CCCCC3)c3ccc(C(=O)O)cc3n1CCN2CCN1CCCCC1 [Example 1-241, 13-cyclohexyl-1-methyl-5-[2-(piperidin-1-yl)ethyl]-6,7-dihydro-5H-benzo[5,6][1,4]diazepino[7,1-a]indole-10-carboxylic acid dihydrochloride] | < 100
O=C(O)c1ccc2c(C3CCCCC3)c3n(c2c1)CCN(CCCN1CCCCC1)c1cc(Cl)ccc1-3 [Example 1-242, 3-chloro-13-cyclohexyl-5-[3-(piperidin-1-yl)propyl]-6,7-dihydro-5H-benzo[5,6][1,4]diazepino[7,1-a]indole-10-carboxylic acid dihydrochloride] | < 100
CCN1CCC(CCN2CCn3c(c(C4CCCCC4)c4ccc(C(=O)O)cc43)-c3ccc(Cl)cc32)CC1 [Example 1-243, 3-chloro-13-cyclohexyl-5-[2-(1-ethylpiperidin-4-yl)ethyl]-6,7-dihydro-5H-benzo[5,6][1,4]diazepino[7,1-a]indole-10-carboxylic acid dihydrochloride] | < 100
O=C(O)c1ccc2c(C3CCCCC3)c3n(c2c1)CCN(CCC1CCNCC1)c1cc(Cl)ccc1-3 [Example 1-244, 3-chloro-13-cyclohexyl-5-[2-(piperidin-4-yl)ethyl]-6,7-dihydro-5H-benzo[5,6][1,4]diazepino[7,1-a]indole-10-carboxylic acid dihydrochloride] | < 100
O=C(O)c1ccc2c(C3CCCCC3)c3n(c2c1)CCN(CCCN1CCCCCC1)c1cc(Cl)ccc1-3 [Example 1-245, 5-[3-(azepan-1-yl)propyl]-3-chloro-13-cyclohexyl-6,7-dihydro-5H-benzo[5,6][1,4]diazepino[7,1-a]indole-10-carboxylic acid dihydrochloride] | < 100
CN1CCC(CCN2CCn3c(c(C4CCCCC4)c4ccc(C(=O)O)cc43)-c3ccc(Cl)cc32)CC1 [Example 1-246, 3-chloro-13-cyclohexyl-5-[2-(1-methylpiperidin-4-yl)ethyl]-6,7-dihydro-5H-benzo[5,6][1,4]diazepino[7,1-a]indole-10-carboxylic acid dihydrochloride] | < 100
CN(C)CCCN1CCn2c(c(C3CCCCC3)c3ccc(C(=O)O)cc32)-c2ccc(Cl)cc21 [Example 1-247, 3-chloro-13-cyclohexyl-5-(3-dimethylaminopropyl)-6,7-dihydro-5H-benzo[5,6][1,4]diazepino[7,1-a]indole-10-carboxylic acid dihydrochloride] | < 100
O=C(O)c1ccc2c(C3CCCCC3)c3n(c2c1)CCN(CCN1CCCCC1)c1cc(F)c(F)cc1-3 [Example 1-248, 13-cyclohexyl-2,3-difluoro-5-[2-(piperidin-1-yl)ethyl]-6,7-dihydro-5H-benzo[5,6][1,4]diazepino[7,1-a]indole-10-carboxylic acid dihydrochloride] | < 100
CCC1CCCN(CCN2CCn3c(c(C4CCCCC4)c4ccc(C(=O)O)cc43)-c3ccc(Cl)cc32)C1 (centres unmarked) [Example 1-249, 3-chloro-13-cyclohexyl-5-[2-(3-ethylpiperidin-1-yl)ethyl]-6,7-dihydro-5H-benzo[5,6][1,4]diazepino[7,1-a]indole-10-carboxylic acid dihydrochloride] | < 100
COC(=O)N1CCC(N(C)CCN2CCn3c(c(C4CCCCC4)c4ccc(C(=O)O)cc43)-c3ccccc32)C1 (centres unmarked) [Example 1-250, 13-cyclohexyl-5-{2-[N-(1-methoxycarbonylpyrrolidin-3-yl)-N-methylamino]ethyl}-6,7-dihydro-5H-benzo[5,6][1,4]diazepino[7,1-a]indole-10-carboxylic acid monohydrochloride] | < 100
CC(=O)N1CCC(N(C)CCN2CCn3c(c(C4CCCCC4)c4ccc(C(=O)O)cc43)-c3ccccc32)C1 (centres unmarked) [Example 1-251, 5-{2-[N-(1-acetylpyrrolidin-3-yl)-N-methylamino]ethyl}-13-cyclohexyl-6,7-dihydro-5H-benzo[5,6][1,4]diazepino[7,1-a]indole-10-carboxylic acid monohydrochloride] | < 100
CN(CCN1CCn2c(c(C3CCCCC3)c3ccc(C(=O)O)cc32)-c2ccccc21)C1CCN(S(C)(=O)=O)C1 (centres unmarked) [Example 1-252, 13-cyclohexyl-5-{2-[N-(1-methanesulfonylpyrrolidin-3-yl)-N-methylamino]ethyl}-6,7-dihydro-5H-benzo[5,6][1,4]diazepino[7,1-a]indole-10-carboxylic-acid] | < 100
Cc1ccc2c(c1)N(CCN1CCCC(C)C1)CCn1c-2c(C2CCCCC2)c2ccc(C(=O)O)cc21 (centres unmarked) [Example 1-253, 13-cyclohexyl-3-methyl-5-[2-(3-methylpiperidin-1-yl)ethyl]-6,7-dihydro-5H-benzo[5,6][1,4]diazepino[7,1-a]indole-10-carboxylic acid dihydrochloride] | < 100
CC1CCCN(CCN2CCn3c(c(C4CCCCC4)c4ccc(C(=O)O)cc43)-c3ccc(F)cc32)C1 (centres unmarked) [Example 1-254, 13-cyclohexyl-3-fluoro-5-[2-(3-methylpiperidin-1-yl)ethyl]-6,7-dihydro-5H-benzo[5,6][1,4]diazepino[7,1-a]indole-10-carboxylic acid dihydrochloride] | < 100
CC1CN(CCN2CCn3c(c(C4CCCCC4)c4ccc(C(=O)O)cc43)-c3ccccc32)CCO1 (centres unmarked) [Example 1-255, 13-cyclohexyl-5-[2-(2-methylmorpholin-4-yl)ethyl]-6,7-dihydro-5H-benzo[5,6][1,4]diazepino[7,1-a]indole-10-carboxylic acid dihydrochloride] | < 100
CCC1CN(CCN2CCn3c(c(C4CCCCC4)c4ccc(C(=O)O)cc43)-c3ccccc32)CCO1 (centres unmarked) [Example 1-256, 13-cyclohexyl-5-[2-(2-ethylmorpholin-4-yl)ethyl]-6,7-dihydro-5H-benzo[5,6][1,4]diazepino[7,1-a]indole-10-carboxylic acid dihydrochloride] | < 100
CCC1COCCN1CCN1CCn2c(c(C3CCCCC3)c3ccc(C(=O)O)cc32)-c2ccccc21 (centres unmarked) [Example 1-257, 13-cyclohexyl-5-[2-(3-ethylmorpholin-4-yl)ethyl]-6,7-dihydro-5H-benzo[5,6][1,4]diazepino[7,1-a]indole-10-carboxylic acid dihydrochloride] | < 100
Cc1ccc2c(c1)N(CCN1CCCCC1C)CCn1c-2c(C2CCCCC2)c2ccc(C(=O)O)cc21 (centres unmarked) [Example 1-258, 13-cyclohexyl-3-methyl-5-[2-(2-methylpiperidin-1-yl)ethyl]-6,7-dihydro-5H-benzo[5,6][1,4]diazepino[7,1-a]indole-10-carboxylic acid dihydrochloride] | < 100
Cc1ccc2c(c1)N(CCN1CCC(C)CC1)CCn1c-2c(C2CCCCC2)c2ccc(C(=O)O)cc21 [Example 1-259, 13-cyclohexyl-3-methyl-5-[2-(4-methylpiperidin-1-yl)ethyl]-6,7-dihydro-5H-benzo[5,6][1,4]diazepino[7,1-a]indole-10-carboxylic acid dihydrochloride] | < 100
Cc1ccc2c(c1)N(CCN1CCCC1)CCn1c-2c(C2CCCCC2)c2ccc(C(=O)O)cc21 [Example 1-260, 13-cyclohexyl-3-methyl-5-[2-(pyrrolidin-1-yl)ethyl]-6,7-dihydro-5H-benzo[5,6][1,4]diazepino[7,1-a]indole-10-carboxylic acid dihydrochloride] | < 100
